{
  "source": "paper PMC12454639",
  "about": "“Direct disassembly of α-syn preformed fibrils into α-syn monomers by an all-D-peptide” (NPJ Parkinson's Disease, 2025)",
  "key": {"small α-syn PFF seeds": {"tested_on": "small α-syn PFF seeds", "test": "Protein quantification after centrifugation (precipitation of small α-syn PFF)", "format": "physicochemical", "settings": "as DLS samples (200 nM PFF + 500 nM SVD-1a), 0, 20, 72 h at 37 °C, centrifuged 21,000×g 30 min, Micro-BCA, n = 3", "procedure": "Measurements were performed using a SpectroSize 300 131 (XtalConcepts, GE) instrument and a sample volume of 1 ml in a sealed quartz cuvette (Hellma Group, GE). Samples were incubated in PBS pH 7.4 at 37 °C under quiescent conditions. Prior to measurements, all samples were centrifuged at 21,000×g for 30 min at 4 °C to remove potential impurities from the solution. For time-dependent DLS measurements, data points were recorded every 60 s. Diffusion coefficients were obtained from analysis of the decay of the scattered intensity autocorrelation function and were used to determine apparent hydrodynamic radii via the Stokes-Einstein equation. Kinetic fitting for the degradation of small α-syn PFF seeds was performed with the “SVD-1a + small α-syn PFF” sample using the “single-phase exponential decay function” of GraphPad Prism 10 (GraphPad Software Inc., USA), considering only particle sizes in the range of 1–100 nm with an amplitude > 0.2. […] Protein quantification after centrifugation was performed by incubating identical samples as in the DLS measurements with additional compound and buffer controls in low-binding reaction tubes at 37 °C under quiescent conditions (n = 3). […] Protein quantification of pellet and supernatant was performed using a Micro-BCA kit following the manufacturer’s instructions (Thermo Fisher Scientific, USA). […]"}, "[1]": {"tested_on": "15N-labeled full-length acetyl-α-syn", "test": "1H-15N HSQC NMR", "format": "binding", "procedure": "Samples were prepared at final concentrations of 25 µM ^15N-labeled full-length acetyl-α-syn in the absence (reference) and presence of an equimolar amount of SVD-1a (not isotopically labeled, thus NMR-invisible) in PBS buffer, pH 7.4, with an addition of 5% D2O for internal reference. 2D 1H-15N HSQC spectra were recorded back-to-back, on a Bruker AVANCE NEO spectrometer (Bruker, USA) operating at 1200 MHz proton Larmor frequency. The experimental temperature was 10 °C. Spectral dimensions were 16.02 ppm (^1H) x 30 ppm (^15N), with 2048 points in the ^1H dimension and 256 increments in the ^15N dimension, resulting in an acquisition time of 53 ms for the ^1H dimension and 35 ms for the ^15N dimension. For each increment, 32 scans were recorded, with a recovery delay of 1 s between scans, resulting in an overall experimental time of […] per spectrum.\nNMR data sets were processed using the Bruker TopSpin software (version 4.1.1) and visualized using CcpNmr Analysis (v2.4.2)[59]. For the assessment of chemical shift changes of α-syn resonances in the presence of SVD-1a relative to the reference spectrum (without SVD-1a), peak positions were extracted using the CcpNmr Analysis software. From the residue-specific chemical shift changes in the ^1H and ^15N dimensions, an absolute chemical shift change, Δδ, was calculated using the formula Δδ = 0.5δH2+0.14δN2 [60]. […]"}, "[2]": {"test": "CD spectroscopy of SVD-1a alone", "format": "physicochemical", "settings": "30 µM, PBS pH 7.4, 37 °C", "procedure": "Far-UV circular dichroism (CD) data were collected using a Jasco J-1100 spectropolarimeter (Jasco, GE). 350 µl samples were pooled and loaded into a high precision quartz cuvette with a path length of 1 mm (Hellma group, GE). A scan speed of 20 nm/min with five accumulations per sample was performed using far UV wavelengths from 260 to 190 nm. Baseline was corrected by subtracting measurements of the reference sample only.\nSupplementary Fig. 13: Analysis of the seeded aggregation assay in the presence and absence of SVD-1a using circular dichroism (CD) spectroscopy. Small α-syn PFF (500 nM) were incubated in PBS (pH 7.4) at 37 °C under quiescent conditions for 24 hours, either alone or in the presence of 15 µM α-synuclein monomer and/or 30 µM SVD-1a. For each condition and time point, three replicates (each 120 µl) were pooled and analyzed by CD spectroscopy at 0, 2, 8, and 24 hours. Far-UV ellipticity was measured in a quartz cuvette (path length = 10 mm) using a J-1100 CD spectrometer (Jasco, GE). […] (D) Co-incubation of 500 nM α-synuclein PFFs with 15 µM α-synuclein monomer induced a structural transition towards β-sheet formation, as reflected in the CD spectrum (referenced to spectrum in (A))."}},
  "note": "Square brackets hold non-standard residues; d marks the D form. Peptide text beside a SMILES is read from it.",
  "data": [
    {"compound": "CC[C@@H](C)[C@@H](NC(=O)[C@@H](Cc1c[nH]cn1)NC(=O)[C@@H](CCC(=O)O)NC(=O)[C@@H](CCC(N)=O)NC(=O)[C@@H](Cc1c[nH]c2ccccc12)NC(=O)[C@@H](Cc1ccc(O)cc1)NC(=O)[C@H](NC(=O)[C@@H](CCC(=O)O)NC(=O)[C@@H](Cc1c[nH]cn1)NC(=O)[C@H](NC(=O)[C@H]1CCCN1C(=O)[C@@H](CC(C)C)NC(=O)[C@H](N)CCCNC(=N)N)[C@H](C)O)[C@H](C)O)C(=O)N[C@H](Cc1c[nH]c2ccccc12)C(=O)N[C@H](Cc1c[nH]cn1)C(=O)N[C@H](C)C(=O)N[C@H](CCCNC(=N)N)C(=O)N[C@H](CCCNC(=N)N)C(=O)N[C@H](CCCNC(=N)N)C(=O)N[C@H](CCCNC(=N)N)C(=O)N[C@H](CCCNC(=N)N)C(N)=O", "note": "[SVD-1a] (H-[dR][dL][dP][dT][dH][dE][dT][dY][dW][dQ][dE][dH][dI][dW][dH][dA][dR][dR][dR][dR][dR]-NH2)", "values": [
      {"measurement": "precipitation of small α-syn PFF seeds", "setting": "small α-syn PFF seeds", "value": "did not lead to precipitation of these species"},
      {"measurement": "NMR chemical shift changes of α-syn", "setting": "[1]; 25 µM 15N-α-syn + 25 µM SVD-1a, PBS pH 7.4, 10 °C, 1200 MHz", "value": "the chemical shift changes are very small, with most residues showing significant chemical shift changes located in the C-terminal region"},
      {"measurement": "precipitation of α-syn in NMR sample", "setting": "[1]; 25 µM α-syn with 25 µM SVD-1a, 4.8 h at 10 °C", "value": "did not yield any signs of signal loss due to precipitation"},
      {"measurement": "secondary structure of peptide alone (CD)", "setting": "[2]", "value": "random coil secondary structure"}
    ]}
  ]
}
